According to publication PMC6792352, “Limited Chemical Structural Diversity Found to Modulate Thyroid Hormone Receptor in the Tox21 Chemical Library” (Environmental Health Perspectives, 2019):
Read-outs that look alike come from different tables or passages of the source.

How the values were obtained:
[1] = target: T1, human TRβ ligand-binding domain (Homo sapiens, UniProt P10828); assay: TRb-bla agonist mammalian one-hybrid beta-lactamase assay (TOX21_TRB_BLA_Agonist_Followup_ratio, aeid 2236); format: cell-based; design: host or cells: GeneBLAzer UAS-bla HEK 293T; details: for AC50: HEK 293T one-hybrid, agonist mode, read-out: TRb-bla-Ag AC50; for TRb-bla hitc: hit call from tcpl, agonist; for Emax: read-out: EMax (% of Control) trb-bla-agonist-followup-1
T1 sequence (P10828 217-461 limits assumed): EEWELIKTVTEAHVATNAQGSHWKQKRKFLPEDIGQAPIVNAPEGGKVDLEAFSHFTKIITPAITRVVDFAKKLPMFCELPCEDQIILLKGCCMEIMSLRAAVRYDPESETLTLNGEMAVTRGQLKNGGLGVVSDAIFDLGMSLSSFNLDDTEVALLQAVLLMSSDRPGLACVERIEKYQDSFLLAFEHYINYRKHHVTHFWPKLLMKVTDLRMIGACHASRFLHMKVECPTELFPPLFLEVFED

[2] = system: thyroid hormone receptor (endogenous TRα and TRβ); assay: GH3-TRE-Ag primary qHTS, luciferase reporter, agonist mode (TOX21_TR_LUC_GH3_Agonist, aeid 803); format: cell-based, rat; details: for GH3-TRE-Ag AC50 hitc: hit call from tcpl; for AC50: read-out: GH3-TRE-Ag AC50
[3] = target: T2, TRα ligand-binding domain (Homo sapiens, UniProt P10827); assay: TRa-coa LanthaScreen TR-FRET coactivator (SRC-2 peptide) recruitment, agonist (TOX21_TRA_COA_Agonist_Followup_ratio, aeid 2230); format: biochemical; details: for AC50: cell-free coactivator recruitment, read-out: TRa-coa-Ag AC50; for TRa-coa hitc: hit call from tcpl, agonist; for Emax: read-out: EMax (% of Control) tra-coa-agonist-followup-1
T2 construct: the receptor LBDs expressed as glutathione S-transferase (GST) fusion proteins; purchased

GH3-TRE-Luc cell line [4] = assay: GH3-TRE-Via cell viability, CellTiter-Fluor (TOX21_TR_LUC_GH3_Antagonist_viability, aeid 805); details: hit call from tcpl
[5] = as above; details: rat
[6] = system: thyroid hormone receptor (TR); assay: Classification of TR actives across characterization assays (TR-Ag / RXR-Ag; TR model binary); details: for Categorization Code: TR agonist characterization; for Classification: TR-Ag = TR agonist, RXR-Ag = RXR agonist
In short: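 Pharmaceuticals excluded; actives called from GH3-TRE qHTS (agonist, antagonist, viability) on 8,305 chemicals. Confirmation of 84 selected chemicals used GH3-TRE-Ag, mammalian one-hybrid TRβ and RXRα UAS-bla HEK 293T specificity screens, parental HEK293T viability, and two TR:coactivator recruitment assays.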

[7] = system: thyroid hormone receptor (endogenous TRα and TRβ); assay: GH3-TRE-Ag-Followup confirmation (TOX21_TR_LUC_GH3_Agonist_Followup, aeid 2226); format: cell-based, rat; details: for AC50: confirmation, agonist mode, read-out: GH3-TRE-Ag-Followup AC50; for GH3-TRE-Ag-Followup hitc: hit call from tcpl
[8] = target: T1, human TRβ ligand-binding domain; assay: TRb-coa LanthaScreen TR-FRET coactivator (SRC-2 peptide) recruitment, agonist (TOX21_TRB_COA_Agonist_Followup_ratio, aeid 2244); format: biochemical; design: host or cells: GeneBLAzer UAS-bla HEK 293T; details: for AC50: cell-free coactivator recruitment, read-out: TRb-coa-Ag AC50; for TRb-coa hitc: hit call from tcpl, agonist; for Emax: read-out: EMax (% of Control) trb-coa-agonist-followup-1
human RXRα = target: T3, human RXRα (Homo sapiens, UniProt P19793); assay: RXRa-bla-Ag mammalian one-hybrid beta-lactamase assay (TOX21_TR_RXR_BLA_Agonist_Followup_ratio, aeid 2253); format: cell-based; details: for AC50: HEK 293T one-hybrid, agonist mode, inactive set to 1,000, read-out: RXRa-bla-Ag AC50; for tr-followup-rxr-bla-agonist-1 hitc: hit call from tcpl
T3 construct: host or cells: GeneBLAzer UAS-bla HEK 293T
T3 sequence (P19793 227-458 limits assumed): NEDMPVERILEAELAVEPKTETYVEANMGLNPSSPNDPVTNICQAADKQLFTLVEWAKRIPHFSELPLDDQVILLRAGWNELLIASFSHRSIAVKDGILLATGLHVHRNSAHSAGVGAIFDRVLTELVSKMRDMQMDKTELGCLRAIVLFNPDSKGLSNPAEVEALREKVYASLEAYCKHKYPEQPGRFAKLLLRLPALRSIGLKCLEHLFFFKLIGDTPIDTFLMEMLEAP

[9] = system: Tox21 cell viability assays (different cell types); assay: Global cytotoxicity: eighteen Tox21 cell viability assays; format: cell-based; details: for GLOBAL CYTOTOXICITY cytotox.number_Active: # active of 18 total Tox21 viability assays; for GLOBAL CYTOTOXICITY cytotox.median: median over Tox21 viability assays
[10] = as above; format: cell-based; details: read-out: Global cytotoxicity AC50 median
in vitro = details: rat, gh3-tre-luc cells, AC50 (uM) modified / 1000
GH3-TRE-Luc cell line [11] = system: GH3-TRE-Luc cell line
[12] = read-out: EMax (% of Control) tr-followup-rxr-bla-agonist-1
[13] = median over 18 Tox21 cell viability assays (Judson et al. 2016, invitrodb_v2)

T2 sequence (P10827 163-410 isoform P10827-2 limits assumed, other chains not shown): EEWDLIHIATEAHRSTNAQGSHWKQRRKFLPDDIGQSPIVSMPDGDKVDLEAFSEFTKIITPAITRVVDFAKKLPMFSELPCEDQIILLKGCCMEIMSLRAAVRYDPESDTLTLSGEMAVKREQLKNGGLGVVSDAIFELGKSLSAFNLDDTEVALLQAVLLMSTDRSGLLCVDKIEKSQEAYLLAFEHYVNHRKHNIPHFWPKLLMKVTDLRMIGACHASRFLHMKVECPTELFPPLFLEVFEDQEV

SMILES	AC50 [1] [µM]	TRb-bla hitc [1]	EMax (% of Control) gh3-tre-agonist [2]	GH3-TRE-Ag AC50 hitc [2]	AC50 [3] [µM]	TRa-coa hitc [3]	Emax [3] [%]	TR_LUC_GH3_Antagonist_viability hitc (GH3-TRE-Luc cell line [4])	AC50 at 24 h [5] [µM]	Categorization Code [6]	Classification [6]	EMax (% of Control) gh3-tre-agonist-followup-1_agonist [7]	AC50 [7] [µM]	GH3-TRE-Ag-Followup hitc [7]	AC50 [8] [µM]	tr-followup-rxr-bla-agonist-1 hitc (human RXRα)	Emax (human RXRα; [12]) [%]	GLOBAL CYTOTOXICITY cytotox.number_Active [9]	GLOBAL CYTOTOXICITY cytotox.median [9]	AC50 [10, 13] [µM]	also measured
CC(C)(C)CC(C)(C)c1ccc(O)c(Cc2ccc(Cl)cc2Cl)c1 [Clofoctol, reference compound]	> 92	0	23.6 % of Control	1	8.92	1	55.5	1	8.04	RXR-Ag	RXR-Ag	34.4 % of Control	3	1	8.93	1	36.1	16	16.7	16.7	TRb-coa hitc [8]: 1; Emax [8]: 64.9%; AC50 (human RXRα): 6800 nM; Emax (human RXRα; read-out: EMax in RXR assay): 36%
N#CC(c1ccc(Cl)cc1)c1c(Cl)cc(-n2ncc(=O)[nH]c2=O)cc1Cl (stereo not drawn) [Diclazuril]	–	–	–	–	–	–	–	–	> 92	–	–	–	–	–	–	–	–	–	–	–	CC50 at 24 h (in vitro): > 50 µM; AC50 ([2]; antagonist candidates, inactive samples arbitrarily set to AC50=1,000 μM): > 92000 nM; cytotoxicity in GH3 viability assay (GH3-TRE-Luc cell line [11]): lacked cytotoxicity; Active in global cytotoxicity assays (%) [9]: 33.3%; active rate in Tox21 viability/cytotoxicity assays [9]: 33%; AC50 ([10]; median over 18 Tox21 cell viability assays, inactive set to 1,000): 33 µM
C[C@]12CC[C@H]3C(=CCc4cc(O)ccc43)[C@@H]1CCC2=O [Equilin, reference compound]	> 92	0	90.8 % of Control	1	> 92	0	1.7	1	85.1	RXR-Ag	RXR-Ag	6.3 % of Control	> 92	0	> 92	1	61.3	0	>92	> 92	Emax [1]: 13.5%; TRb-coa hitc [8]: 0; Emax [8]: -0.4%; AC50 (human RXRα): 986 nM
N[C@@H](Cc1cc(I)c(Oc2cc(I)c(O)c(I)c2)c(I)c1)C(=O)O [Levothyroxine, reference compound]	–	–	117.2 % of Control	1	–	1	171	0	> 92	TR-Ag	TR-Ag	100.3 % of Control	–	1	–	0	21.2	0	>92	> 92	AC50 ([2]; primary qHTS, agonist mode, 24 h, top concentration 92 μM): 6.1 nM; AC50 (human RXRα): 1360 nM
O=C(O)Cc1cc(I)c(Oc2cc(I)c(O)c(I)c2)c(I)c1 [Tetrac, 3,3ʹ,5,5ʹ-tetraiodothyroacetic acid]	0.0209	1	113.5 % of Control	1	0.248	1	153	1	51.3	TR-Ag	TR-Ag	123.6 % of Control	0.006	1	0.227	1	61.6	5	35.7	35.7	Emax [1]: 204%; TR_LUC_GH3_Agonist_EMAX (% Control) ([2]; Table S5): 105.7 % Control; TRb-coa hitc [8]: 1; Emax [8]: 122%
